Data on one compound can be found in US20250387481A1, “PRE-TREATED T CELLS FOR USE AS A MEDICAMENT” (STICHTING HET NEDERLANDS KANKER INSTITUUT-ANTONI VAN …, priority 2022, published 2025).

For one test, the system named is KB1P tumors. Briefly: Drug treatment in vivo of mice bearing KB1P tumors. Further details: species or system mouse. As for the experimental part:
For tumor generation, tumor organoids were transplanted into the 4th mammary fat pad of FVB female mice. Rimadyl (0.067 mg/ml, Zoetis) was administered to mice in the drinking water from 24 h before surgery and for 48 h after surgery. Mice were also treated with temgesic (0.1 mg/kg, Indivior Europe Limited), 1 hr before and 12 h after surgery. Mice were anesthetized with isoflurane (2%, v/v) and their eyes were covered with duratears (Alcon). About 100,000 single cells derived from KB1P organoids or 200,000 single cells derived from MMTV-PyMT organoids were injected in 30 μl of BME (Amsbio, Cat. No. 3533-005-02). Mice were weighed and monitored three times a week after transplantation of tumor organoids. Tumor volume was measured with calipers three times weekly. The researcher performing the measurement of tumor volume was blinded to the treatment group. For survival experiments, endpoint was reached when tumor reached 2000 mm3. For specific experiments, reference is made to the schematic representations of treatment timelines depicted in the figures.
Once tumors were established and reached a size of ˜7×7 mm, mice were randomized into treatment groups with the following drug dosages and timeline: • AC+T treatment: every 14 days, cyclophosphamide (144 mg/kg, administered via intraperitoneal injection), doxorubicin (5 mg/kg, administered via intravenous injection) and docetaxel (25 mg/kg, resuspended in acetonitrile containing 0.1% acetic acid, administered via intravenous injection). Doxorubicin hydrochloride (Adriamycin) and cyclophosphamide (C), when combined in a treatment, are herein referred to as “AC”. Taxanes, as broadly described and disclosed herein, are referred to as “T”. In one example, said taxane is docetaxel. • AC treatment: every 14 days, cyclophosphamide (144 mg/kg, administered via intraperitoneal injection) and doxorubicin (5 mg/kg administered via intravenous injection). • Docetaxel treatment: every 14 days, docetaxel (25 mg/kg, re-suspended in acetonitrile containing 0.1% acetic acid and administered via intravenous injections). • Vehicle control for chemotherapy: every 14 days, the same volume of the vehicle as the corresponding chemotherapy was administered to mice. […]

In a further test the test system is KB1P organoids. The test can be described thus: Co-culture of pre-treated splenic T cells with KB1P organoids (MTT, cleaved-caspase 3). Format: cell-based, mouse. The conditions noted are these: T cells that cannot mature nor produce a TCR response.

For `CC(=O)O[C@@]12CO[C@@H]1C[C@H](O)[C@@]1(C)C(=O)[C@H](O)C3=C(C)[C@@H](OC(=O)[C@H](O)[C@@H](NC(=O)OC(C)(C)C)c4ccccc4)C[C@@](O)([C@@H](OC(=O)c4ccccc4)[C@H]21)C3(C)C` [docetaxel], the “anti-tumor effects of docetaxel (survival) upon T cell depletion” value in the test with KB1P tumors (depletion of CD4 alone, CD8 alone or both) is “abrogated the anti-tumor effects”. In the test with KB1P tumors (docetaxel 25 mg/kg intravenous every 14 days vs vehicle), the tumor outgrowth entry is “delayed tumor outgrowth”. Moreover, the “CD4 and CD8 T cell infiltration (immunohistochemistry)” value in the test with KB1P tumors (docetaxel vs vehicle) is “enhanced CD4 and CD8 T cell infiltration”. Moreover, the “accumulation of mitotic figures in tumors” value in the test with KB1P tumors (tumors isolated 24 h after the second docetaxel administration) is “did not observe an accumulation of mitotic figures”. Also, the “T cell-mediated killing by T cells from NOD-SCID IL2rg-/- mice” value in the test on KB1P organoids is “triggered T cell-mediated killing”.
